In patent publication US20110262497A1, “NOVEL EZETIMIBE FORMULATIONS” (LEK Pharmaceuticals D.D., priority 2008, published 2011):

Test: solubility of ezetimibe in water
Type: physicochemical

solubility: < 10 µg/mL
Structure (SMILES): O=C1[C@H](CC[C@H](O)c2ccc(F)cc2)[C@@H](c2ccc(O)cc2)N1c1ccc(F)cc1 [ezetimibe, 1-(4-fluorophenyl)-3(R)-[3-(4-fluorophenyl)-3(S)-hydroxypropyl]-4(S)-(4-hydroxyphenyl)-2-azetidinone]
